The molecules below were run on Aβ42 production (assay: Quantification of Aβ peptide in culture of neurons from rat fetus brain (Aβ ELISA)). Settings: Neuron, 72 h; rat primary neuronal culture (cerebral cortex, embryonic day 18 Wistar rats); medium collected three days after addition of the compound; Aβx-42 ELISA; read-out: Aβ42 production reducing effect IC50.
Assay type: cell-based
Summary of the method: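 Primary cortical neurons from embryonic day 18 Wistar rats were cultured 4 days, then exposed to compound in Neurobasal/B27 without 2-ME, final DMSO ≤1%. After three days, medium was collected and Aβx-42 measured undiluted by sandwich ELISA.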
NC1=N[C@@]2(c3cc(NC(=O)c4ccc(Br)cn4)ccc3F)CCOC[C@H]2CS1 (single isomer, unassigned) [Example 142, N-[3-((4aS*,8aS*)-2-amino-4a,5,7,8-tetrahydro-4H-6-oxa-3-thia-1-azanaphthalen-8a-yl)-4-fluorophenyl]-5-bromopyridine-2-carboxamide] was tested, and the IC50 was 10 nM.
NC1=N[C@@]2(c3cc(NC(=O)c4ncc(F)cc4F)ccc3F)CCC[C@H]2CS1 (single isomer, unassigned) [Example 168, N-[3-((4aR*,7aS*)-2-amino-4a,5,6,7-tetrahydro-4H-cyclopenta[d][1,3]thiazin-7a-yl)-4-fluorophenyl]-3,5-difluoropyridine-2-carboxamide] was tested, and the IC50 was 16 nM.
NC1=N[C@@]2(c3cc(NC(=O)c4ccc(C(F)(F)F)cn4)ccc3F)CCC[C@H]2CS1 (single isomer, unassigned) [Example 169, N-[3-((4aR*,7aS*)-2-amino-4a,5,6,7-tetrahydro-4H-cyclopenta[d][1,3]thiazin-7a-yl)-4-fluorophenyl]-5-trifluoromethylpyridine-2-carboxamide] showed an IC50 of 27 nM.
NC1=N[C@@]2(c3cc(NC(=O)c4ncccc4C(F)(F)F)ccc3F)CCC[C@H]2CS1 (single isomer, unassigned) [Example 170, N-[3-((4aR*,7aS*)-2-amino-4a,5,6,7-tetrahydro-4H-cyclopenta[d][1,3]thiazin-7a-yl)-4-fluorophenyl]-3-trifluoromethylpyridine 2-carboxamide] showed an IC50 of 210 nM.
NC1=N[C@@]2(c3cc(NC(=O)c4ncccc4F)ccc3F)CCC[C@H]2CS1 (single isomer, unassigned) [Example 171, N-[3-((4aR*,7aS*)-2-amino-4a,5,6,7-tetrahydro-4H-cyclopenta[d][1,3]thiazin-7a-yl)-4-fluorophenyl]-3-fluoropyridine-2-carboxamide] was tested, and the IC50 was 89 nM.
Work on NC1=N[C@@]2(c3cc(NC(=O)c4ccc(Br)cn4)ccc3F)CCC[C@H]2CS1 (single isomer, unassigned) [Example 172, N-[3-((4aR*,7aS*)-2-amino-4a,5,6,7-tetrahydro-4H-cyclopenta[d][1,3]thiazin-7a-yl)-4-fluorophenyl]-5-bromopyridine-2-carboxamide] yielded an IC50 of 7 nM.
Work on NC1=N[C@@]2(c3cc(NC(=O)c4ncccc4Br)ccc3F)CCC[C@H]2CS1 (single isomer, unassigned) [Example 173, N-[3-((4aR*,7aS*)-2-amino-4a,5,6,7-tetrahydro-4H-cyclopenta[d][1,3]thiazin-7a-yl)-4-fluorophenyl]-3-bromopyridine-2-carboxamide] yielded an IC50 of 72 nM.
COc1ccc(C(=O)Nc2ccc(F)c([C@]34CCC[C@H]3CSC(N)=N4)c2)nc1 (single isomer, unassigned) [Example 174, N-[3-((4aR*,7aS*)-2-amino-4a,5,6,7-tetrahydro-4H-cyclopenta[d][1,3]thiazin-7a-yl)-4-fluorophenyl]-5-methoxypyridine-2-carboxamide] showed an IC50 of 11 nM.
NC1=N[C@@]2(c3cc(NC(=O)c4ccc(OC(F)F)cn4)ccc3F)CCC[C@H]2CS1 (single isomer, unassigned) [Example 175, N-[3-((4aR*,7aS*)-2-amino-4a,5,6,7-tetrahydro-4H-cyclopenta[d][1,3]thiazin-7a-yl)-4-fluorophenyl]-5-difluoromethoxypyridine-2-carboxamide] showed an IC50 of 9 nM.
For NC1=N[C@@]2(c3cc(NC(=O)c4ncc(Br)cn4)ccc3F)CCC[C@H]2CS1 (single isomer, unassigned) [Example 176, N-[3-((4aR*,7aS*)-2-amino-4a,5,6,7-tetrahydro-4H-cyclopenta[d][1,3]thiazin-7a-yl)-4-fluorophenyl]-5-bromopyrimidine-2-carboxamide], the IC50 was 10 nM.
COc1cnc(C(=O)Nc2ccc(F)c([C@]34CCC[C@H]3CSC(N)=N4)c2)cn1 (single isomer, unassigned) [Example 177, N-[3-((4aR*,7aS*)-2-amino-4a,5,6,7-tetrahydro-4H-cyclopenta[d][1,3]thiazin-7a-yl)-4-fluorophenyl]-5-methoxypyrazine-2-carboxamide] was tested, and the IC50 was 18 nM.
NC1=N[C@@]2(c3cc(NC(=O)c4cnc(OCC(F)(F)F)cn4)ccc3F)CCC[C@H]2CS1 (single isomer, unassigned) [Example 178, N-[3-((4aR*,7aS*)-2-amino-4a,5,6,7-tetrahydro-4H-cyclopenta[d][1,3]thiazin-7a-yl)-4-fluorophenyl]-5-(2,2,2-trifluoroethoxy)-pyrazine-2-carboxamide] was tested, and the IC50 was 44 nM.
With NC1=N[C@@]2(c3cc(NC(=O)c4ccc(OCC(F)(F)F)cn4)ccc3F)CCC[C@H]2CS1 (single isomer, unassigned) [Example 179, N-[3-((4aR*,7aS*)-2-amino-4a,5,6,7-tetrahydro-4H-cyclopenta[d][1,3]thiazin-7a-yl)-4-fluorophenyl]-5-(2,2,2-trifluoroethoxy)-pyridine-2-carboxamide] the IC50 was 98 nM.
NC1=N[C@@]2(c3cc(NC(=O)c4ncc(Cl)cc4Cl)ccc3F)CCC[C@H]2CS1 (single isomer, unassigned) [Example 180, N-[3-((4aR*,7aS*)-2-amino-4a,5,6,7-tetrahydro-4H-cyclopenta[d][1,3]thiazin-7a-yl)-4-fluorophenyl]-3,5-dichloropyridine-2-carboxamide] showed an IC50 of 3 nM.
Work on NC1=N[C@@]2(c3cc(NC(=O)c4cnc(OCC(F)F)cn4)ccc3F)CCC[C@H]2CS1 (single isomer, unassigned) [Example 181, N-[3-((4aR*,7aS*)-2-amino-4a,5,6,7-tetrahydro-4H-cyclopenta[d][1,3]thiazin-7a-yl)-4-fluorophenyl]-5-(2,2-difluoroethoxy)-pyrazine-2-carboxamide] yielded an IC50 of 47 nM.
Molecule NC1=N[C@@]2(c3cc(NC(=O)c4ccc(OCC(F)F)cn4)ccc3F)CCC[C@H]2CS1 (single isomer, unassigned) [Example 182, N-[3-((4aR*,7aS*)-2-amino-4a,5,6,7-tetrahydro-4H-cyclopenta[d][1,3]thiazin-7a-yl)-4-fluorophenyl]-5-(2,2-difluoroethoxy)-pyridine-2-carboxamide] has an IC50 of 90 nM.
In the case of NC1=N[C@@]2(c3cc(NC(=O)c4cnc(OCCF)cn4)ccc3F)CCC[C@H]2CS1 (single isomer, unassigned) [Example 183, N-[3-((4aR*,7aS*)-2-amino-4a,5,6,7-tetrahydro-4H-cyclopenta[d][1,3]thiazin-7a-yl)-4-fluorophenyl]-5-(2-fluoroethoxy)-pyrazine-2-carboxamide], the IC50 is reported as 28 nM.
Work on NC1=N[C@@]2(c3cc(NC(=O)c4ncc(C(F)(F)F)cc4Cl)ccc3F)CCC[C@H]2CS1 (single isomer, unassigned) [Example 184, N-[3-((4aR*,7aS*)-2-amino-4a,5,6,7-tetrahydro-4H-cyclopenta[d][1,3]thiazin-7a-yl)-4-fluorophenyl]-3-chloro-5-trifluoromethyl-pyridine-2-carboxamide] yielded an IC50 of 13 nM.
For NC1=N[C@@]2(c3cc(NC(=O)c4ncc(Cl)cc4Cl)ccc3F)CCOC[C@H]2CS1 (single isomer, unassigned) [Example 185, N-[3-((4aS*,8aS*)-2-amino-4a,5,7,8-tetrahydro-4H-6-oxa-3-thia-1-azanaphthalen-8a-yl)-fluorophenyl]-3,5-dichloropyridine-2-carboxamide], the IC50 was 10 nM.
Work on NC1=N[C@@]2(c3cc(NC(=O)c4ccc(C(F)(F)F)cn4)ccc3F)CCOC[C@H]2CS1 (single isomer, unassigned) [Example 186, N-[3-((4aS*,8aS*)-2-amino-4a,5,7,8-tetrahydro-4H-6-oxa-3-thia-1-azanaphthalen-8a-yl)-fluorophenyl]-5-trifluoromethylpyridine-2-carboxamide] yielded an IC50 of 30 nM.
Molecule NC1=N[C@@]2(c3cc(NC(=O)c4ccc(F)cn4)ccc3F)CCOC[C@H]2CS1 (single isomer, unassigned) [Example 187, N-[3-((4aS*,8aS*)-2-amino-4a,5,7,8-tetrahydro-4H-6-oxa-3-thia-1-azanaphthalen-8a-yl)-4-fluorophenyl]-5-fluoropyridine-2-carboxamide] has an IC50 of 54 nM.
For NC1=N[C@@]2(c3cc(NC(=O)c4ncc(F)cc4F)ccc3F)COC[C@H]2CS1 (single isomer, unassigned) [Example 188, N-[3-((4aS*,7aS*)-2-amino-4a,5-dihydro-4H-furo[3,4-d][1,3]thiazin-7a-yl)-4-fluorophenyl]-3,5-difluoropyridine-2-carboxamide], the IC50 was 22 nM.
Work on NC1=N[C@@]2(c3cc(NC(=O)c4ncc(Cl)cc4Cl)ccc3F)COC[C@H]2CS1 (single isomer, unassigned) [Example 189, N-[3-((4aS*,7aS*)-2-amino-4a,5-dihydro-4H-furo[3,4-d][1,3]thiazin-7a-yl)-4-fluorophenyl]-3,5-dichloropyridine-2-carboxamide] yielded an IC50 of 8 nM.
NC1=N[C@@]2(c3cc(NC(=O)c4ccc(C(F)F)cn4)ccc3F)COC[C@H]2CS1 (single isomer, unassigned) [Example 190, N-[3-((4aS*,7aS*)-2-amino-4a,5-dihydro-4H-furo[3,4-d][1,3]thiazin-7a-yl)-4-fluorophenyl]-5-difluoromethylpyridine-2-carboxamide] was tested, and the IC50 was 12 nM.
NC1=N[C@@]2(c3cc(NC(=O)c4cnc(C(F)F)cn4)ccc3F)CCC[C@H]2CS1 (single isomer, unassigned) [Example 191, N-[3-((4aR*,7aS*)-2-amino-4a,5,6,7-tetrahydro-4H-cyclopenta[d][1,3]thiazin-7a-yl)-4-fluorophenyl]-5-difluoromethylpyrazine-2-carboxamide] showed an IC50 of 9 nM.
In the case of NC1=N[C@@]2(c3cc(NC(=O)c4ccc(Br)cn4)ccc3F)CCCCC[C@H]2CS1 (single isomer, unassigned) [Example 249, N-[3-((4aR*,9aS*)-2-amino-4a,5,6,7,8,9-hexahydro-4H-cyclohepta[d][1,3]thiazin-9a-yl)-4-fluroophenyl]-5-bromopyridine-2-carboxamide], the IC50 is reported as 18 nM.

Source: US20100317850A1 (priority 2008, published 2010)
